Assay results reported in US7202243B2, “Substituted imidazotriazines” (Bayer HealthCare AG, priority 2002, dated 2007).

Target: T1, PDE 10A (Homo sapiens, UniProt Q9Y233)
T1 construct: is expressed recombinantly in full length in Sf9 insect cells; made in house; host or cells: Sf9 insect cells, Bac-to-Bac baculovirus expression system
Assay: Inhibition of PDE 10A (in vitro enzyme inhibition test, [3H]cAMP scintillation proximity assay)
Type: biochemical
Details: recombinant full-length PDE 10A expressed in Sf9 insect cells; substrate [5',8-3H] cAMP; 60 min at 20° C.
Protocol: 48 h after infection, the cells are harvested and suspended in 20 ml (per 1 l of culture) of lysis buffer (50 mM tris HCl, pH 7.4, 50 mM NaCl, 1 mM MgCl2, 1.5 mM EDTA, 10% glycerol plus 20 μl of Protease Inhibitor Cocktail Set III [CalBiochem, La Jolla, Calif. USA]). The cells are treated with ultrasound at 4° C. for 1 minute and subsequently centrifuged at 10 000 rpm for 30 minutes at 4° C. The supernatant (PDE 10A preparation) was collected and stored at −20° C.
The test substances are dissolved in 100% DMSO for the determination of their in vitro action on PDE 10A and serially diluted. […] 2 μl of the diluted substance solutions in each case are introduced into the hollows of microtiter plates (Isoplate; Wallac Inc., Atlanta, Ga.). Subsequently, 50 μl of a dilution of the PDE 10A preparation described above are added. The dilution of the PDE 10A preparation is chosen such that during the later incubation less than 70% of the substrate is reacted (typical dilution: 1:10 000; dilution buffer: 50 mM tris/HCl pH 7.5, 8.3 mM MgCl2, 1.7 mM EDTA, 0.2% BSA). The substrate, [5′,8-^3H] adenosine 3′,5′-cyclic phosphate (1 μCi/μl; Amersham Pharmacia Biotech., Piscataway, N.J.) is diluted 1:2000 with assay buffer (50 mM tris/HCl pH 7.5, 8.3 mM MgCl2, 1.7 mM EDTA) to a concentration of 0.0005 μCi/μl. The enzyme reaction is finally started by addition of 50 μl (0.025 μCi) of the diluted substrate. The test batches are incubated for 60 min at 20° C. and the reaction is stopped by addition of 25 μl of a suspension containing 18 mg/ml of Yttrium Scintillation Proximity Beads (Amersham Pharmacia Biotech., Piscataway, N.J.). The microtiter plates are sealed using a film and allowed to stand for 60 min at 20° C. Subsequently, the plates are measured for 30 s per hollow in a Microbeta scintillation counter (Wallac Inc., Atlanta, Ga.). IC50 values are determined by means of graphic plotting of the substance concentration against the percentage inhibition.

T1 sequence (Q9Y233 1-779 isoform Q9Y233-1): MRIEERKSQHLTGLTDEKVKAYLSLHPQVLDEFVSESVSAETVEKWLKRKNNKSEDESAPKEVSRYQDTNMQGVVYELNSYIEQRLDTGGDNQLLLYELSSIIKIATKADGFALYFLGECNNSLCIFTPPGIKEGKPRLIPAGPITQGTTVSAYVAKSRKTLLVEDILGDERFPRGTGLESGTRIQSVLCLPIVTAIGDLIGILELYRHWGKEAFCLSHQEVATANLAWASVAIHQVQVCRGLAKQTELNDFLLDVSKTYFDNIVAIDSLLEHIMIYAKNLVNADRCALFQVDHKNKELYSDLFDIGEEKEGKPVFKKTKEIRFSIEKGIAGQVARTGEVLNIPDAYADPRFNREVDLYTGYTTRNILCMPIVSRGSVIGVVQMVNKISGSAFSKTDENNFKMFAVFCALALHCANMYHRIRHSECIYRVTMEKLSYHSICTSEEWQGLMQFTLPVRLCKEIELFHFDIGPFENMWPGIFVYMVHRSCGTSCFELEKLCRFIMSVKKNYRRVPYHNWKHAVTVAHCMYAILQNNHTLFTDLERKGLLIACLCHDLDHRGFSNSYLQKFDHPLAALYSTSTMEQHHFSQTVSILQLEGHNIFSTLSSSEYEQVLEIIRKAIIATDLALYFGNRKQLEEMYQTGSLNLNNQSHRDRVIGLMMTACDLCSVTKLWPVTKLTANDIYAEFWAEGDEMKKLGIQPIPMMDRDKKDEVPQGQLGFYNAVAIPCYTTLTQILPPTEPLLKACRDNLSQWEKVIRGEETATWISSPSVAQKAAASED

Q: `COc1cc(Nc2nc(-c3ccc(NC=O)cc3)nn3c(C)nc(C)c23)cc(OC)c1OC` [Example 12, 4-{5,7-Dimethyl-4-[(3,4,5-trimethoxyphenyl)amino]imidazo[5,1-f][1,2,4]triazin-2-yl}phenylformamide] was tested. Which IC50 did it give?
A: 8 nM

Q: Which IC50 does the source give for `COc1cc(Nc2nc(-c3cccc(NS(C)(=O)=O)c3)nn3c(C)nc(C)c23)cc(OC)c1OC` [Example 11, N-(3-{5,7-Dimethyl-4-[(3,4,5-trimethoxyphenyl)amino]imidazo[5,1-f][1,2,4]triazin-2-yl}phenyl)methanesulfonamide] here?
A: 43 nM

Q: Which IC50 does the source give for `COc1cc(Oc2nc(-c3cccc(NC(C)=O)c3)nn3c(C)nc(C)c23)cc(OC)c1OC` [Example 9, N-{3-[5,7-Dimethyl-4-(3,4,5-trimethoxyphenoxy)imidazo[5,1-f][1,2,4]triazin-2-yl]-phenyl}acetamide] here?
A: 30 nM

Q: How did the IC50 turn out when `COc1cc(Oc2nc(-c3ccc(NC(C)=O)cc3)nn3c(C)nc(C)c23)cc(OC)c1OC` [Example 2, N-{4-[5,7-Dimethyl-4-(3,4,5-trimethoxyphenoxy)imidazo[5,1-f][1,2,4]triazin-2-yl]-phenyl}acetamide] was run?
A: 37 nM

Q: For `COc1cc(Nc2nc(-c3ccc(NC(=O)CO)cc3)nn3c(C)nc(C)c23)cc(OC)c1OC` [Example 15, N-(4-{5,7-Dimethyl-4-[(3,4,5-trimethoxyphenyl)amino]imidazo[5,1-f][1,2,4]triazin-2-yl}phenyl)-2-hydroxyacetamide], which IC50 is on record?
A: 6 nM
